Data on one compound can be found in paper PMC13379085 (PLOS Neglected Tropical Diseases, 2026).

The test system of series [1] is THP-1 macrophages. Kind of series: MTT viability of THP-1 macrophages (host cell cytotoxicity). The note with it: 72 hr incubation up to 300µM. Format: cell-based. Here is the method:
Human monocytes, THP-1 (ATCC, TIB002) were used as host cells for Leishmania infection and to assess drug cytotoxicity. The cells were cultured at 37C, 5% CO2 in RPMI medium (ATCC) supplemented with 10% FBS, 1% Penicillin/Streptomycin and 0.05 mM of β-mercaptoethanol. Cells were used in experiments up to passage 10.
Effect of the compounds on THP-1 cell viability measured using thiazolyl blue tetrazolium bromide which measures cell metabolic activity (MTT). […] Macrophages were then treated with compounds resuspended in RPMI media (1–50 µM) for 24 hours. Media was replaced with thiazolyl blue tetrazolium bromide solubilized in RPMI media (0.5 mg/mL) and incubated at 37°C for 2 hours. The reduced formazan crystals were solubilized with isopropyl alcohol and the absorbance of the resulting solution was measured at 560 nm with a background subtraction at 670 nm. […] This process was repeated with a 72-hr incubation and extended concentration range (1–300 µM) for select compounds.

The target of series [2] is T1, lysozyme (Homo sapiens, UniProt P61626).
T1 sequence (P61626 19-148): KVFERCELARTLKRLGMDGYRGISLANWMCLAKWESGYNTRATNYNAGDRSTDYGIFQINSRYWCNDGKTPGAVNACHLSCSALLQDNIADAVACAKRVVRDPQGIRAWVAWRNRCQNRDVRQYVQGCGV
Put plainly: Fluorometric lysozyme activity assay. More on the design: purchased Sigma L1667. The note with it: lysozyme 1mg/mL; 0, 1, and 50 µM 197. Format: biochemical. Here is the method: Recombinant human lysozyme protein (1mg/mL, Sigma, Cat # L1667) was incubated with 0 µM, 1 µM or 50 µM 197. Lysozyme activity was measured via a fluorometric assay (Abcam, Cat # ab211113) according to manufacturer’s protocol.

Series [3] concerns the target T1, lysozyme. Kind of series: Affinity capture proteomics with 197-bead in Leishmania infected macrophage lysate. On the set-up: endogenous in cells; host or cells: PMA-differentiated THP-1 macrophages infected with L. mexicana (lysate). In kind it is binding. The note with it: 197-bead vs control bead. Here is the method: To generate cell lysate, ten million THP-1 cells were plated overnight in a 10 cm dish, then differentiated with 150 nM phorbol 12-myristate 13-acetate (PMA) for 72 hours. The resulting macrophages were infected with L. mexicana promastigotes at a multiplicity of infection of 1:10 and incubated for 18 hours. After infection, cells were washed three times with PBS to remove extracellular promastigotes. Cells were then collected by scraping and pelleted with centrifugation. The cell pellet was resuspended in cell buffer (50mM Tris-HCl, 150mM NaCl, 2mM EDTA, 0.5% triton-x-100) and subjected to five freeze-thaw cycles. Samples were centrifuged 14,000g x 10 minutes to remove cellular debris. Protein concentration of supernatant was determined by BCA assay and cell lysate was stored at -80 ° C until further use.
Functionalized agarose beads were made as follows. NHS activated agarose beads were washed three times to remove acetone and resuspended in PBS to create a slurry. 494 (197 with ligation chemical handle) was prepared in 0.3 mL at 25mM in DMSO and 1.7 mL PBS was added to 1 mL of agarose slurry for a final volume of 3 mL at a concentration of 2.5mM (10% v/v DMSO). […]
The peptide samples were resuspended in 15 μL of 5% ACN/0.1% formic acid and analyzed by LC-MS/MS using an Easy nLC 1200 coupled to a QExactive HF mass spectrometer (Thermo Scientific). […]

Turning to `O=C(CNCc1cccc(F)c1)Nc1ccc(-n2cc(C(F)(F)F)nc2-c2ccc(-c3ccc(C(F)(F)F)cc3)cc2)cc1` [Compound 197], the “reduction in macrophage viability” value in series [1] is given as “Neither compound had any reduction”. Further, in series [2], the lysozyme activity entry is “dose-dependent increase”. Further, in series [3], the “affinity capture abundance of lysozyme, Log2 fold change” value is given as 6.57.
